# Source: publication PMC11855827, “High-Throughput Screening of Five Compound Libraries for Anthelmintic Activity and Toxicity Leads to the Discovery of Two Flavonoid Compounds” (International Journal of Molecular Sciences, 2025)
# *1 amine or outer side, *2 acyl side, *3 side chain or, on linkers, in order; H or OH if unused. Where a SMILES comes first, the peptide text is derived from it. Bridges are numbered along the chain shown (N, C = ends). [ ]: non-standard residue; d: D form. The star is where a group is joined. hTyr(3S-OH,4S-OH,3'-OSO3H) = N[C@H](C(=O)O)[C@H](O)[C@@H](O)c1ccc(O)c(OS(=O)(=O)O)c1; Orn(4R-OH,5R-OH) = O=C([C@H](C[C@@H](O)[C@@H](O)N[*:3])N[*:1])[*:2]; Pro(3S-OH,4S-Me) = C[C@H]1CN[C@H](C(=O)O)[C@H]1O; X1 = CCCCCOc1ccc(-c2cc(-c3ccc(C(=O)*)cc3)no2)cc1; Gln(3R-OH) = NC(=O)C[C@@H](O)[C@H](N)C(=O)O; Hyp = O=C(O)[C@@H]1C[C@@H](O)CN1
# Test system: C. elegans
# Conditions: Table S2, C. elegans SS assay, 110 μM, averages of 4 data points
Compound,Percentage of motility inhibition 0 h [%],Percentage of motility inhibition 24 h [%]
C[C@@H]1O[C@@H](O[C@H]2[C@H](O[C@H]3CC[C@@]4(C)[C@@H](CC[C@]5(C)[C@@H]4CC=C4[C@@H]6CC(C)(C)CC[C@]6(C(=O)O[C@@H]6O[C@H](CO[C@@H]7O[C@H](CO)[C@@H](O)[C@H](O)[C@H]7O)[C@@H](O)[C@H](O)[C@H]6O)CC[C@]45C)[C@]3(C)CO)OC[C@H](O)[C@@H]2O)[C@H](O)[C@H](O[C@@H]2O[C@H](CO)[C@@H](O[C@@H]3O[C@H](CO)[C@@H](O)[C@H](O)[C@H]3O)[C@H](O)[C@H]2O)[C@H]1O [Macranthoidin B],6,0
O=C1N[C@@H](Cc2ccc(O)cc2)C(=O)N2CCC[C@@H]12 [Maculosin],0,0
CC(=O)O.NCc1ccc(S(N)(=O)=O)cc1 [Mafenide (Acetate)],21,10
CC(=O)[O-].CC(=O)[O-].O.O.O.O.[Mg+2] [Magnesium acetate tetrahydrate],2,0
CCOC(=O)c1c(C)n(C)c2ccc(O)cc12 [Mecarbinate],38,36
CC1(C)CC[C@]2(C(=O)O)CC[C@]3(C)C(=CC[C@@H]4[C@@]5(C)C[C@H](O)[C@H](O)[C@@](C)(C(=O)O)[C@@H]5CC[C@]43C)[C@@H]2C1 [Medicagenic acid],0,5
Cl.OC(c1cc(C(F)(F)F)nc2c(C(F)(F)F)cccc12)C1CCCCN1 (stereo not drawn) [Mefloquine (hydrochloride)],45,22
OCC1=C[C@@H](O)[C@]2(O[C@@H]3O[C@H](CO)[C@@H](O)[C@H](O)[C@H]3O)C=CO[C@@H](O[C@@H]3O[C@H](CO)[C@@H](O)[C@H](O)[C@H]3O)[C@H]12 [Melittoside],0,4
CC1CCC(C(C)C)C(O)C1 (stereo not drawn) [Menthol],3,17
C[C@@H](O)[C@H]1C(=O)N2C(C(=O)O)=C(S[C@@H]3CN[C@H](C(=O)N(C)C)C3)[C@H](C)[C@H]12.O.O.O [Meropenem (trihydrate)],12,9
COC[C@]12CN(C)[C@@H]3[C@@H]4[C@H](OC)[C@H]1[C@@]3([C@@H](OC)C[C@H]2O)[C@@H]1C[C@@]2(O)[C@H](OC(=O)c3ccccc3)[C@@H]1[C@]4(OC(C)=O)[C@@H](O)[C@@H]2OC [Mesaconitine],0,3
Cc1c(N(C)CS(=O)(=O)[O-])c(=O)n(-c2ccccc2)n1C.[Na+] [Metamizole (sodium)],17,2
C=C1c2cccc(O)c2C(=O)C2=C(O)[C@]3(O)C(=O)C(C(N)=O)=C(O)[C@@H](N(C)C)[C@@H]3[C@@H](O)[C@H]12.Cl [Methacycline (hydrochloride)],17,20
COc1cccc(OC)c1C(=O)N[C@@H]1C(=O)N2[C@@H]1SC(C)(C)[C@@H]2C(=O)[O-].[Na+] [Methicillin (sodium salt)],16,1
COC(=O)c1ccc(O)cn1 [Methyl 5‐hydroxypyridine‐2‐carboxylate],7,1
CNc1ccccc1C(=O)OC [Methyl N‐methylanthranilate],30,4
COC(=O)C1=CO[C@@H](O[C@@H]2O[C@H](CO)[C@@H](O)[C@H](O)[C@H]2O)[C@@H]2C(CO)=C[C@H](O)[C@H]12 [Methyl deacetylasperulosidate],16,30

Compound,Percentage of motility inhibition 0 h [%],Percentage of motility inhibition 24 h [%]
COC(=O)[C@]12CCC(C)(C)C[C@H]1C1=CC[C@@H]3[C@@]4(C)CCC(=O)C(C)(C)[C@@H]4CC[C@@]3(C)[C@]1(C)CC2 [Methyl oleanonate],4,1
CO[C@]1(CC[C@@H](C)CO[C@@H]2O[C@H](CO)[C@@H](O)[C@H](O)[C@H]2O)O[C@H]2C[C@H]3[C@@H]4CC=C5C[C@@H](O[C@@H]6O[C@H](CO)[C@@H](O)[C@H](O[C@@H]7O[C@H](CO)[C@@H](O)[C@H](O)[C@H]7O)[C@H]6O[C@@H]6O[C@@H](C)[C@H](O)[C@@H](O)[C@H]6O)CC[C@]5(C)[C@H]4CC[C@]3(C)[C@H]2[C@@H]1C [Methyl protogracillin],0,15
COc1ccc2c(c1OC)O[C@H]1c3ccc(O[C@@H]4O[C@H](CO)[C@@H](O)[C@H](O)[C@H]4O)cc3OC[C@@H]21 [Methylnissolin‐3‐O‐glucoside],8,7
Cc1c(O)c(C)c2c(c1O)C(=O)[C@H](Cc1ccc3c(c1)OCO3)CO2 [Methylophiopogonanone A],21,0
COc1ccc(C[C@@H]2COc3c(C)c(O)c(C)c(O)c3C2=O)cc1 [Methylophiopogonanone B],0,21
Cc1c(O)c(C)c2occ(Cc3ccc4c(c3)OCO4)c(=O)c2c1O [Methylophiopogonone A],0,0
CC1(C)S[C@@H]2[C@H](NC(=O)[C@H](NC(=O)N3CCN(S(C)(=O)=O)C3=O)c3ccccc3)C(=O)N2[C@H]1C(=O)[O-].[Na+] [Mezlocillin (sodium)],0,4
CN1CCN2c3ccccc3Cc3ccccc3C2C1.Cl (stereo not drawn) [Mianserin (hydrochloride)],0,0
"CCCCCOc1ccc(-c2cc(-c3ccc(C(=O)N[C@H]4C[C@@H](O)[C@@H](O)NC(=O)[C@@H]5[C@@H](O)[C@@H](C)CN5C(=O)[C@H]([C@H](O)CC(N)=O)NC(=O)[C@H]([C@H](O)[C@@H](O)c5ccc(O)c(OS(=O)(=O)[O-])c5)NC(=O)[C@@H]5C[C@@H](O)CN5C(=O)[C@H]([C@@H](C)O)NC4=O)cc3)no2)cc1.[Na+] [Micafungin (sodium)] (X1-[Orn(4R-OH,5R-OH)]T[Hyp][hTyr(3S-OH,4S-OH,3'-OSO3H)][Gln(3R-OH)][Pro(3S-OH,4S-Me)]; lactam 1-C)",3,0
Clc1ccc(COC(Cn2ccnc2)c2ccc(Cl)cc2Cl)c(Cl)c1.O=[N+]([O-])O (stereo not drawn) [Miconazole (nitrate)],26,15
COC(=O)C1=CO[C@@H](C)[C@H]2CN3CC[C@]4(C(=O)Nc5ccccc54)[C@@H]3C[C@H]12 [Mitraphylline],0,21
C[C@H](CC[C@@H](O[C@@H]1O[C@H](CO)[C@@H](O)[C@H](O)[C@H]1O[C@@H]1O[C@H](CO)[C@@H](O)[C@H](O)[C@H]1O)C(C)(C)O)[C@H]1CC[C@@]2(C)[C@@H]3CC=C4[C@@H](CC[C@H](O[C@@H]5O[C@H](CO)[C@@H](O)[C@H](O)[C@H]5O)C4(C)C)[C@]3(C)[C@H](O)C[C@]12C [Mogroside III-E],25,17
C[C@H](CC[C@@H](O[C@@H]1O[C@H](CO[C@@H]2O[C@H](CO)[C@@H](O)[C@H](O)[C@H]2O)[C@@H](O)[C@H](O)[C@H]1O)C(C)(C)O)[C@H]1CC[C@@]2(C)[C@@H]3CC=C4[C@@H](CC[C@H](O[C@@H]5O[C@H](CO)[C@@H](O)[C@H](O)[C@H]5O)C4(C)C)[C@]3(C)[C@H](O)C[C@]12C [Mogroside III],7,3
C[C@H](CC[C@@H](O[C@@H]1O[C@H](CO)[C@@H](O)[C@H](O)[C@H]1O)C(C)(C)O)[C@H]1CC[C@@]2(C)[C@@H]3CC=C4[C@@H](CC[C@H](O[C@@H]5O[C@H](CO)[C@@H](O)[C@H](O)[C@H]5O)C4(C)C)[C@]3(C)[C@H](O)C[C@]12C [Mogroside IIe],0,7
C[C@H](CC[C@@H](O[C@@H]1O[C@H](CO[C@@H]2O[C@H](CO)[C@@H](O)[C@H](O)[C@H]2O)[C@@H](O)[C@H](O)[C@H]1O)C(C)(C)O)[C@H]1CC[C@@]2(C)[C@@H]3CC=C4[C@@H](CC[C@H](O[C@@H]5O[C@H](CO[C@@H]6O[C@H](CO)[C@@H](O)[C@H](O)[C@H]6O)[C@@H](O)[C@H](O)[C@H]5O)C4(C)C)[C@]3(C)[C@H](O)C[C@]12C [Mogroside IV-A],0,0
C[C@H](CC[C@@H](O[C@@H]1O[C@H](CO)[C@@H](O)[C@H](O)[C@H]1O[C@@H]1O[C@H](CO)[C@@H](O)[C@H](O)[C@H]1O)C(C)(C)O)[C@H]1CC[C@@]2(C)[C@H]3CC=C4[C@@H](CC[C@H](O[C@@H]5O[C@H](CO[C@@H]6O[C@H](CO)[C@@H](O)[C@H](O)[C@H]6O)[C@@H](O)[C@H](O)[C@H]5O)C4(C)C)[C@]3(C)[C@H](O)C[C@]12C [Mogroside IV-E],4,6
